These results are taken from patent US7786131B2, “Pyrimido[5,4-d]pyrimidines derivatives as irreversible inhibitors of tyrosine kinases” (Warner-Lambert Company, priority 1996, dated 2010).

The test system of series [1] is MCF7 human breast carcinoma. Briefly: MCF-7 tumor xenograft. It counts as in vivo, mice.
Description: (§1) Female nude mice (NCr nu/nu, Taconic Farms) 18-20 g were implanted SC with tumor fragments (approximately 30 mg) in the region of the right axilla on Day 0. […] The vehicle was 6% dimethyl acetamide in 50 mM lactate buffer, pH 4.0Tumor volumes were recorded three times per week by measuring the length and width of the individual tumors and calculating the mass in milligrams according to the formula (a×b^2)/2, where a and b are the length and width of the tumor. Percent T/C (treated/control) was calculated based on the ratio of the median tumor volume of the treated tumors compared with the median tumor volume of the control tumors on specified measurement days.
Series [2] has as its system murine 16/c mammary adenocarcinoma. Briefly: Murine 16/c mammary adenocarcinoma model. The note with it: doses of up to 120 mg/kg bid. The series is classed as in vivo, mice.
Description: as §1
Series [3] concerns A431 human epidermoid carcinoma. Put plainly: A431 tumor xenograft. It counts as in vivo, mice.
Description: as §1
The subject of series [4] is SK-OV-3 human ovarian carcinoma. Put plainly: SK-OV-3 tumor xenograft. The series is classed as in vivo, mice. Particulars: ID dosing bid Days 10-14, 17-21, 24-28, 30 mg/kg.
Description: as §1
The target of series [5] is EGF receptor tyrosine kinase (Homo sapiens, UniProt P00533). Put plainly: Tyrosine kinase assay, isolated EGF receptor tyrosine kinase. It counts as biochemical.
For series [6], the target named is T1, EGF receptor autophosphorylation in A431 cells (Homo sapiens, UniProt P00533).
T1 construct: A431 human epidermoid carcinoma cells were grown in 6-well plates; endogenous in cells; host or cells: A431 human epidermoid carcinoma cells
Briefly: Autophosphorylation assay in A431 cells. The series is classed as cell-based. Particulars: EGF-stimulated EGFR autophosphorylation in A431 cells.
Description: (§2) Extracts were made by lysing the monolayers in 0.2 mL of boiling Laemlli buffer (2% sodium dodecyl sulfate, 5% beta-mercaptoethanol, 10% glycerol and 50 mM tris[hydroxymethyl]aminomethane (Tris), pH 6.8), and the lysates were heated to 100° C. for 5 minutes. Proteins in the lysate were separated by polyacrylamide gel electrophoresis and electrophoretically transferred to nitrocellulose. The membrane was washed once in 10 mM Tris, pH 7.2, 150 mM NaCl, 0.01% Azide (TNA), and blocked overnight in TNA containing 5% bovine serum albumin and 1% ovalbumin. The membrane was blotted for 2 hours with antiphosphotyrosine antibody (UBI, 1 μg/mL in blocking buffer) and then washed twice in TNA, once in TNA containing 0.05% Tween-20 detergent and 0.05% nonidet P-40 detergent and twice in TNA. […] Band intensities were determined with a Molecular Dynamics laser densitometer.
Duplicate sets of cells were treated with a range of concentrations of the designated compound to be tested as an inhibitor for 15 minutes. The cells were then stimulated with 100 ng/mL of EGF for 5 minutes and extracts made as described under the Western Blotting Procedure.

In series [7] the target is T1, EGF receptor autophosphorylation in A431 cells. Briefly: Irreversibility test: recovery of EGF receptor autophosphorylation after washout. The series is classed as cell-based. The note with it: for % Control After 2-Hour Incubation / % Control After 8 Hours in Drug-Free Media Incubation: 2 μM inhibitor; for % Control After 2-Hour Incubation: EGFR autophosphorylation; for % Control After 8 Hours in Drug-Free Media Incubation: washed, 8 hours drug-free; for remaining activity at 2 µM: A-431, A431 cells treated 2 hours with 2 μM, read-out: % of Control Autophosphorylation.
Description: as §2
Duplicate sets of cells were treated with 2 μM of designated compound to be tested as an irreversible inhibitor for either 1 or 2 hours. One set of cells was then stimulated with 100 ng/mL of EGF for 5 minutes and extracts made as described under the western blotting procedure. The other set of cells were washed free of the compound with warmed serum-free media, incubated for 2 hours, washed again, incubated another 2 hours, washed again, and then incubated a further 4 hours. This set of cells was then stimulated with EGF and extracts made similar to the first set of cells.

The next series deals with c-src tyrosine kinase (UniProt P00523). Put plainly: Tyrosine kinase assay, c-src. The series is classed as biochemical.
Series [8] deals with T2, insulin receptor intracellular kinase domain (Homo sapiens, UniProt P06213).
T2 construct: Assays using intracellular kinase domains of PDGF, FGF, and insulin receptors
Briefly: Tyrosine kinase assay, insulin receptor. It counts as biochemical.

In series [9] the target is T3, FGF receptor intracellular kinase domain (FGF1) (Homo sapiens, UniProt P11362).
T3 construct: Assays using intracellular kinase domains of PDGF, FGF, and insulin receptors
Briefly: Tyrosine kinase assay, FGF receptor. It counts as biochemical.

In series [10] the test system is A431 human epidermoid carcinoma cells. Put plainly: Growth inhibition assay in A431 cells. It counts as cell-based. Particulars: A-431, 72 hours, cell count, read-out: IC50, inhibition of proliferation in A431 cells. The protocol: A431 human epidermoid carcinoma cells were obtained from the American Type Culture Collection, Rockville, Md. and maintained as monolayers in dMEM (Dulbecco's modified eagle medium)/F12, 50:50 (Gibco/BRL) containing 10% fetal bovine serum. […] The plates were incubated for 72 hours at 37° C. in a humidified atmosphere containing 5% CO2 in air. Cell growth was determined by cell count with a Coulter Model AM electronic cell counter (Coulter Electronics, Inc., Hialeah, Fla.).

Series [11] has as its system NIH 3T3 fibroblast transfected with the h-EGF receptor. Briefly: EGFR tumor xenograft in nude mice.
Description: as §1
Series [12] can be described thus: In vivo toxicity on IP dosing bid (no tumor named).
Setting [13] is: isolated EGFR kinase, read-out: EGFR Tyrosine Kinase IC50.

Where two headings read alike, the source gives them in different places.

Usually inhibition stands for the share of the control response that was lost under treatment. As a reminder, the melting point is the temperature, or range, at which the solid turns liquid.

T1 sequence (P00533 25-1210): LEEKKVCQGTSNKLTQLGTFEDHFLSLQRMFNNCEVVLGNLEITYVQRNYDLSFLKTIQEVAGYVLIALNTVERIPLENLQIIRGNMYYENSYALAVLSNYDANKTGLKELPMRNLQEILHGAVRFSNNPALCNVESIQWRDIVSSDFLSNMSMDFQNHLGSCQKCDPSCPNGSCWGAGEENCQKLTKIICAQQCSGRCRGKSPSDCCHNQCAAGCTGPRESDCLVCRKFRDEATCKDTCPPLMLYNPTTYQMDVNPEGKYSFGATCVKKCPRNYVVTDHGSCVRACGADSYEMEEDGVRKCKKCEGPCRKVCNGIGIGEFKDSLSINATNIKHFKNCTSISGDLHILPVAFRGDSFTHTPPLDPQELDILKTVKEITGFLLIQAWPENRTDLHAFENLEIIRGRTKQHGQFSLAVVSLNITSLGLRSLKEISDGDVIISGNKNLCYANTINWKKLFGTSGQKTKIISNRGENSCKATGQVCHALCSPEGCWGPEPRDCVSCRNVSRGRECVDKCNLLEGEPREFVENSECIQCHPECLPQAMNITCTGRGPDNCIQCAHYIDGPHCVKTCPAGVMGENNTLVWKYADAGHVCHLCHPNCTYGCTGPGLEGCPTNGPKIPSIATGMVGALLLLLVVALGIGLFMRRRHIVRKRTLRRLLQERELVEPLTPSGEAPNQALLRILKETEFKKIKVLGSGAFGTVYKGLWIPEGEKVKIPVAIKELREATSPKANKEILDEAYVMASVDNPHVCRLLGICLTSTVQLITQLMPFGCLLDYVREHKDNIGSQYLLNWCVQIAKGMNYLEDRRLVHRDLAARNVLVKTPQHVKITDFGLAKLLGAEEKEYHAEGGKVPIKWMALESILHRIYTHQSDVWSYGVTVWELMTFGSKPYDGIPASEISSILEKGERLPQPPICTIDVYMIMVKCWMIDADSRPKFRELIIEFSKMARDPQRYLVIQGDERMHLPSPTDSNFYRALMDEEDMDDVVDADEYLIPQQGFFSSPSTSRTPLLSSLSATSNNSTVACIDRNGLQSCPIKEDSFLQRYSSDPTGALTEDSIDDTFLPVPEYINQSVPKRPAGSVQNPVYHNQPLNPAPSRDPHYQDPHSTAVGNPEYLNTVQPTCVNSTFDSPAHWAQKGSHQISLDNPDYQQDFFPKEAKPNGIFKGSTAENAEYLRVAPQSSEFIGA
Chain of EGF receptor tyrosine kinase (P00533 25-1210): as above
T3 sequence (P11362 478-767 limits assumed): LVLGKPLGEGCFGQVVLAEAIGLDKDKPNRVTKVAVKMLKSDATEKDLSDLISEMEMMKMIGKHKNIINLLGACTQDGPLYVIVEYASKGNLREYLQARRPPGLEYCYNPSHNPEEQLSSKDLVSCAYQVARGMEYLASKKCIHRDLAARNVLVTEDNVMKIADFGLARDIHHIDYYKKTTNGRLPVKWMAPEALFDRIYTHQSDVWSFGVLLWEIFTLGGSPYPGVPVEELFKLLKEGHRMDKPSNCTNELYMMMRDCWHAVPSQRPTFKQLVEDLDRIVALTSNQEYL
T2 sequence (P06213 1023-1298 limits assumed): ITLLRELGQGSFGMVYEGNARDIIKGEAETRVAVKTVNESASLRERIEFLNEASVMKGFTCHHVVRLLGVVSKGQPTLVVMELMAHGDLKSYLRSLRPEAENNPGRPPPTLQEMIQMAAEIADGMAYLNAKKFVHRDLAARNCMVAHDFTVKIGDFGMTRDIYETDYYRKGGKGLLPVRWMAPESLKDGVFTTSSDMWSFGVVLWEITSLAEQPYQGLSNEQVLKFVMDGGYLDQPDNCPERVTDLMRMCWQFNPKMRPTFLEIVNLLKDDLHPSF

Turning to `C=CC(=O)Nc1ccc2ncnc(Nc3cccc(Br)c3)c2c1` [Example 11, N-[4-[(3-Bromophenyl)amino]quinazolin-6-yl]acrylamide], the growth delay in series [1] (IP bid Days 1-5, 8-12, 15-19, 28 mg/kg) stood at 22.9 days; in series [1] (IP bid Days 1-5, 8-12, 15-19, 47 mg/kg), 17.4 days; in [3] (IP bid Days 7-11, 21-25, 28 mg/kg), 28.2 days; in series [3] (PO once daily Days 7-21, 100 mg/kg), 2 days; in series [3] (PO once daily Days 7-21, 200 mg/kg), 3.5 days; in series [4], 1.2 days. The outcome in [2] was Inactive.
In the case of `C=CC(=O)Nc1ccc2c(Nc3cccc(Br)c3)ncnc2c1` [Example 3, N-[4-(3-Bromo-phenylamino)-quinazolin-7-yl]acrylamide], the “specificity for the EGF receptor tyrosine kinase as opposed to other tyrosine kinase enzymes” value in [5] (Table 4) was “very high specificity”. The IC50 in series [5] (Table 4, read-out: EGFR IC50) was 0.36 nM; in [5] (setting [13]) it was 0.36 nM; in [6], 14 nM; against c-src tyrosine kinase it was more than 2500 nM; in series [8], more than 50000 nM; in [9], more than 50000 nM. Further, in series [10], the IC50 turned out to be 300 ± 90 nM. Further, the “% Control After 2-Hour Incubation” value in [7] (A431 cells) is 1%. Besides, the “% Control After 8 Hours in Drug-Free Media Incubation” value in series [7] (A431 cells) is given as 13%. Also, the “time required for return of 50% of the activity” value in [7] (A431 cells, 2 μM, drug-free media (Table 3)) worked out at 21 h. For the same compound, the remaining activity at 2 µM in series [7] (0 hours in drug-free media) turned out to be 0%; in series [7] (4 hours in drug-free media), 12%; in series [7] (8 hours in drug-free media), 23%; in series [7] (23 hours in drug-free media), 54%. Also, the inhibition at 2 µM in series [7] (A-431, A431 cells, 2 μM, end of 8 hours washoff, read-out: inhibition of the enzyme (kinase activity) after washoff) amounted to 89%. The “% T/C” value in series [11] (3 mg/kg/injection, Day 7) is given as 115%; in series [11] (3 mg/kg/injection, Day 10), 138%; in [11] (3 mg/kg/injection, Day 12) it was 113%; in series [11] (30 mg/kg/injection, Day 7), 48%; in series [11] (30 mg/kg/injection, Day 10) it was 66%; in series [11] (30 mg/kg/injection, Day 12), 53%. Further, the “% T/C” value in [11] (100 mg/kg/injection, Day 7) is recorded as 57%; in series [11] (100 mg/kg/injection, Day 10), 70%; in series [11] (100 mg/kg/injection, Day 12) it was 57%. Also, the “activity against tumor growth” value in [11] (10 or 3 mg/kg/injection IP every 12 hours Days 3-7) was “No activity”. Moreover, the growth delay in [11] (EGFR tumor, IP bid Days 1 through 13, 75 mg/kg) is 5 days; in [11] (EGFR tumor, IP bid Days 1 through 13, 190 and 120 mg/kg) it was 1 days; in series [11] (EGFR tumor, IP bid Days 3 through 7, 30 mg/kg), 2.5 days; in series [11] (EGFR tumor, IP bid Days 3 through 7, 100 mg/kg) it was 4 days. Also, the activity result in series [11] (EGFR tumor, IP bid Days 1 through 13, 300 mg/kg) is “no activity”. Also, in [11] (any dose level, IP every 12 hours Days 3-7), the “weight loss, lethality, or clinical signs of toxicity” value was “No weight loss, lethality, or clinical signs of toxicity”.
`C=CC(=O)Nc1cc2c(Nc3cccc(Br)c3)ncnc2cc1OCCCN1CCOCC1` [Example 21, N-[4-[(3-Bromophenyl)amino]-7-[3-(4-morpholino)propoxy]quinazolin-6-yl]acrylamide]: the toxicity result in series [12] (48 mg/kg) was “toxic”.
Turning to `C=CS(=O)(=O)Nc1cc2c(Nc3cccc(Br)c3)ncnc2cn1` [Example 40, N-[4-(3-Bromo-phenylamino)-pyrido[3,4-d]pyrimidin-6-yl]-ethenylsulfonamide], the toxicity result in series [12] (48 and 20 mg/kg) is reported as “toxic”.
As for `C=CC(=O)Nc1cc2c(Nc3cccc(C)c3)ncnc2cn1` [Example 37, N-[4-(3-Methyl-phenylamino)-pyrido [3,4-d]pyrimidin-6-yl]acryl], the melting point is 221 to 223 °C (dec.). The IC50 in [5] (setting [13]) amounted to 0.48 nM. Moreover, the IC50 in [6] amounted to 8.3 nM. Further, in [7] (A431 cells), the “% Control After 2-Hour Incubation” value is 0% and the “% Control After 8 Hours in Drug-Free Media Incubation” value turned out to be 0%.
With `C=CC(=O)Nc1ccc2ncnc(Nc3cccc(C)c3)c2c1` [Example 19, N-[4-[(3-methylphenyl)amino]quinazolin-6-yl]acrylamide], the IC50 in [5] (setting [13]) came out at 0.42 nM; in series [6], 4.7 nM. In addition, in series [7] (A431 cells), the “% Control After 2-Hour Incubation” value was determined as 0%. Moreover, the “% Control After 8 Hours in Drug-Free Media Incubation” value in series [7] (A431 cells) came to 0%. Also, the growth delay in series [3] (SC-Infusion (Alzet) Days 9-23, 12 mg/kg/day) came to 15 days; in series [3] (SC-Infusion (Alzet) Days 9-23, 24 mg/kg/day), 14 days; in [4], 1.3 days; in [11] (EGFR tumor, IP bid for 14 days, 48 mg/kg), 6.4 days; in [11] (EGFR tumor, IP bid for 14 days, 77 mg/kg) it was 7.9 days; in series [11] (EGFR tumor, IP bid for 14 days, 124 mg/kg), 11.8 days. Moreover, the toxicity entry in series [11] (EGFR tumor, IP bid for 14 days, 200 mg/kg) was “toxic”.
The compound `CC(=O)N(c1cccc(Br)c1)c1ncnc2ccc(N3C(=O)C=CC3=O)cc12` [Example 58, N-(3-Bromo-phenyl)-N-[6-(2,5-dioxo-2,5-dihydro-pyrrol-1-yl)-quinazolin-4-yl]-acetamide] showed a melting point of 174 to 175 °C. In addition, the IC50 in [5] (setting [13]) was 124 nM. Moreover, the IC50 in series [6] was more than 500 nM. In [7] (A431 cells), the “% Control After 2-Hour Incubation” value is reported as 81% and the “% Control After 8 Hours in Drug-Free Media Incubation” value turned out to be 95%.
